Here are results for 36 compounds from patent publication US4474977A, “Amino-alcohol derivatives” (Continental Pharma S.A., priority 1977, dated 1984).

Read-outs that look alike come from different tables or passages of the source.

The test system of one experiment is guinea pig ileum. In words: antispasmodic activity against contractions of guinea pig ileum induced by histamine and acetylcholine. To be noted: Cavia porcellus. As for the experimental part: The antispasmodic activity of the products according to the invention was tested against contractions of guinea pig ileum, such as induced by histamine and acetylcholine. These tests allow to reveal an antihistaminic activity, an anticholinergic activity or a musculotropic antispasmodic activity. The response to the contracting agent (submaximum concentration)was repeated every 5 minutes before and after injection of increasing doses of the tested products (10^-8 to 10^-5 M). The various doses were added at intervals of 20 minutes or of the time necessary to the development of the maximum effect.
The percentage of inhibition under the influence of tested products was calculated and the theoretical concentration ensuring 50% inhibition was graphically determined for each experience. These values were expressed as -log IC50 (M). The standard value for papaverine was 4.50, namely an effective concentration of 30 μM.

Experiment [1] concerns femoral arterial circulation. The experiment in a line: peripheral vasodilator activity on anaesthetized dog, femoral arterial perfusion pressure. The format is in vivo. To be noted: 30 μg/kg injected in femoral perfusion (some also at other doses); in words. As for the experimental part: The peripheral vasodilator activity of the products according to the invention was measured on anaesthetized dog at the level of the femoral arterial circulation. To this end, the femoral artery the collaterals of which were ligaturated was perfused with a constant flow rate of blood taken from aorta. Thus the perfusion pressure measured at the level of the femoral artery, varied as a function of the resistance of perfused area. The tested products and the corresponding solvents were directly injected in the system at the dose of 30 μg/kg. The blood circulation rate being maintained constant, a vasodilation was thus measured by a decrease of the perfusion pressure. The latter is rated in comparison with the action of papaverine considered as standard and injected once per group of 4 products.
When being of interest, the products were tested at other doses under the same conditions. The vasodilation activity was rated as follows:
+: 1/3 of the papaverine activity
++: 2/3 of the papaverine activity
+++: activity equal to that of papaverine (i.e. 30 to 40 mm Hg)
++++: activity higher than that of papaverine.

For experiment [2], the system named is spontaneously hypertensive rats. In words: antihypertensive activity, oral administration to non-anesthetized spontaneously hypertensive rats, systolic arterial pressure (plethysmographic). In kind it is in vivo, rat. To be noted: for antihypertensive activity: 60 mgr/kg oral (some also at other doses), in words; for antihypertensive effect (rating): oral. As for the experimental part:
Their antihypertensive activity was tested by oral administration to non-anesthetized, spontaneously hypertensive rats, on which the systolic arterial pressure is measured at the level of the median coccygeal artery by means of a plethysmographic method (J. Roba, G. Lambelin, A. F. De Schaepdryver, Arch. int. Pharmacodyn., 200, 182, 1972). The arterial pressure was measured every 30 minutes from two hours before to three hours after oral administration of 60 mgr/kg of the tested products or of a placebo (1% tragacanth gum mucilage). When being of interest, the products were tested at other doses under similar conditions. Only rats having a systolic pressure of 180 to 220 mm Hg were used. Two rats were used for each product. The treatments were made without the knowledge of the person making the measures. The antihypertensive effects were rated as follows:
+: reduction of 10 to 20 mm Hg
++: reduction of 20 to 30 mm Hg
+++: reduction of 30 to 50 mm Hg
++++: reduction >50 mm Hg

Where [3] appears, read: 50% inhibition of contractions, converted from -log IC50, read-out: effective concentration / concentration corresponding to -log IC50 (converted).
Where [4] appears, read: contractions induced by histamine and acetylcholine, 10^-8 to 10^-5 M, read-out: -log IC50 (M), antispasmodic activity (converted).
[5] abbreviates: read-out: -log IC50 (M), antispasmodic activity (converted).
The mark [6] stands for this setting: read-out: effective concentration / concentration corresponding to -log IC50 (converted).

With `CCCCCCCCN[C@@H](C)[C@@H](OC(=O)C1CCCCC1)c1ccc(SC(C)C)cc1` (relative stereo) [Compound 29], the IC50 in the experiment on guinea pig ileum (setting [3]) and in the experiment with guinea pig ileum (setting [4]) was below 1e-06 M each time.
Turning to `CCCCCCCCNC(C)C(OC(=O)CC)c1ccc(SC(C)C)cc1` (centres unmarked) [Compound 2], the IC50 with guinea pig ileum (setting [3]) and with guinea pig ileum (setting [4]) was below 1e-06 M each time.
As for `CCCCCCCCNC(C)C(OC(=O)C(C)C)c1ccc(SC(C)C)cc1` (centres unmarked) [Compound 4], the “peripheral vasodilator activity (compared with papaverine)” value in experiment [1] was “at least equal to that of papaverine”. Besides, the IC50 in the experiment on guinea pig ileum (setting [3]) and with guinea pig ileum (setting [4]) was below 1e-06 M in each case.
As for `CCCCCCCCNC(C)C(OC(=O)CCC)c1ccc(SC(C)C)cc1.Cl` (centres unmarked) [Compound 6, 1-Butyryloxy-1-(4-isopropylthiophenyl)-2-n-octylaminopropane hydrochloride], the “peripheral vasodilator activity (compared with papaverine)” value in experiment [1] is “at least equal to that of papaverine”. Moreover, the IC50 with guinea pig ileum (setting [3]) and in the experiment on guinea pig ileum (setting [4]) was below 1e-06 M each time.
Turning to `CCCCCCCCNC(C)C(OC(=O)C1CCCCC1)c1ccc(SC(C)C)cc1` (centres unmarked) [Compound 7], the antihypertensive activity result in experiment [2] was “suitable antihypertensive activity”.
The same measure, in the same setting: the value for `CCCCCCCCNC(C)C(OC(=O)C1CCCC1)c1ccc(SC(C)C)cc1` (centres unmarked) [Compound 8] was “suitable antihypertensive activity”.
For the compound `CCCCCCCCNC(C)C(OC(=O)C1CCC1)c1ccc(SC(C)C)cc1` (centres unmarked) [Compound 9], the “peripheral vasodilator activity (compared with papaverine)” value in experiment [1] is on record as “at least equal to that of papaverine”. For the same compound, the IC50 in the experiment with guinea pig ileum (setting [3]) and in the experiment on guinea pig ileum (setting [4]) was below 1e-06 M in each case.
Consider `CC(C)Sc1ccc(C(OC(=O)C2CCC2)C(C)NCCCCc2ccccc2)cc1` (centres unmarked) [Compound 10], for which the antihypertensive activity result in experiment [2] is recorded as “suitable antihypertensive activity”. The IC50 in the experiment with guinea pig ileum (setting [3]) and in the experiment with guinea pig ileum (setting [4]) was below 1e-06 M each time.
For `CCCCCCCCNC(C)C(OC(=O)CC)c1ccc(SC2CCCCC2)cc1` (centres unmarked) [Compound 11], the IC50 with guinea pig ileum (setting [3]) and with guinea pig ileum (setting [4]) was below 1e-06 M throughout.
As for `CCCCCCCCNC(C)C(OC(C)=O)c1ccc(SC2CCCC2)cc1` (centres unmarked) [Compound 15], the “peripheral vasodilator activity (compared with papaverine)” value in experiment [1] is “at least equal to that of papaverine”. Also, the IC50 in the experiment with guinea pig ileum (setting [5]) and with guinea pig ileum (setting [6]) was below 1e-06 M throughout.
As to `CCCCCCCCNC(C)C(OC(C)=O)c1ccc(OC(C)C)cc1` (centres unmarked) [Compound 18, 1-acetyloxy-1-(4-isopropyloxyphenyl)-2-n.octylaminopropane], the antihypertensive activity entry in experiment [2] is recorded as “suitable antihypertensive activity”. In addition, in experiment [1], the “peripheral vasodilator activity (compared with papaverine)” value was “at least equal to that of papaverine”. For the same compound, the IC50 in the experiment on guinea pig ileum (setting [5]) and with guinea pig ileum (setting [6]) was below 1e-06 M in each case.
Regarding `CCCCCCCCNC(C)C(OC(=O)C(C)C)c1ccc(OCCCC)cc1` (centres unmarked) [Compound 19, 1-(p-n-Butyloxyphenyl)-1-sec-butyryloxy-2-n-octylaminopropane], in experiment [2], the antihypertensive activity result is recorded as “suitable antihypertensive activity”.
On to `CC(C)Sc1ccc(C(OC(=O)C(C)C)C(C)NCCOc2ccccc2)cc1` (centres unmarked) [Compound 22], for which the IC50 in the experiment on guinea pig ileum (setting [3]) and with guinea pig ileum (setting [4]) was below 1e-06 M in each case.
Take `CCCC(=O)OC(c1ccc(SC(C)C)cc1)C(C)NCCCCc1ccccc1` (centres unmarked) [Compound 23]: in experiment [1], the “peripheral vasodilator activity (compared with papaverine)” value was “at least equal to that of papaverine”. Moreover, the IC50 with guinea pig ileum (setting [3]) and in the experiment on guinea pig ileum (setting [4]) was below 1e-06 M in each case.
On to `CCCC(=O)OC(c1ccc(SC(C)C)cc1)C(C)NCCOc1ccccc1` (centres unmarked) [Compound 24], for which the antihypertensive activity result in experiment [2] is “suitable antihypertensive activity”. Also, the IC50 with guinea pig ileum (setting [3]) and in the experiment on guinea pig ileum (setting [4]) was below 1e-06 M each time.
As for `CC(=O)OC(c1ccc(SC(C)C)cc1)C(C)NCCOc1ccccc1` (centres unmarked) [Compound 25], the antihypertensive activity result in experiment [2] is reported as “suitable antihypertensive activity”.
For the compound `CC(C)Sc1ccc(C(OC(=O)C(C)C)C(C)NCCCCc2ccccc2)cc1` (centres unmarked) [Compound 26], the “peripheral vasodilator activity (compared with papaverine)” value in experiment [1] is listed as “at least equal to that of papaverine”. In addition, the IC50 in the experiment with guinea pig ileum (setting [3]) and with guinea pig ileum (setting [4]) was below 1e-06 M each time.
Turning to `CCCCCCCCNC(C)C(OC(=O)C1CC1)c1ccc(SC(C)C)cc1` (centres unmarked) [Compound 28], the IC50 with guinea pig ileum (setting [3]) and in the experiment with guinea pig ileum (setting [4]) was below 1e-06 M throughout.
Turning to `CCCCCCCCNC(C)C(OC(=O)CCCCC(=O)OC)c1ccc(SC(C)C)cc1` (centres unmarked) [Compound 31], the IC50 in the experiment with guinea pig ileum (setting [3]) and in the experiment on guinea pig ileum (setting [4]) was below 1e-06 M in each case.
Take `CCCCCCCCNC(C)C(OC(=O)CCc1ccccc1)c1ccc(SC(C)C)cc1` (centres unmarked) [Compound 32]: the IC50 with guinea pig ileum (setting [3]) and in the experiment with guinea pig ileum (setting [4]) was below 1e-06 M in each case.
For the compound `CCCCCCCCNC(C)C(OC(=O)Cc1ccccc1)c1ccc(SC(C)C)cc1` (centres unmarked) [Compound 34], the antihypertensive activity result in experiment [2] is given as “suitable antihypertensive activity”.
As for `CCCCCCCCNC(C)C(OC(=O)Cc1ccc(OC)cc1)c1ccc(SC(C)C)cc1` (centres unmarked) [Compound 35], the antihypertensive activity result in experiment [2] is recorded as “suitable antihypertensive activity”.
Regarding `CCCCCCCCNC(C)C(OC(=O)CC1CCCCC1)c1ccc(SC(C)C)cc1` (centres unmarked) [Compound 37], the antihypertensive activity result in experiment [2] is reported as “suitable antihypertensive activity”.
Still for that read-out and setting: the value for `CC(=O)OC(c1ccc(SC(C)C)cc1)C(C)NCCCC(=O)c1ccc(F)cc1` (centres unmarked) [Compound 43] was “suitable antihypertensive activity”.
On to `CCCCCCCCNC(C)C(O)c1ccc(OCC(C)C)cc1` (centres unmarked) [Compound 78], for which the “peripheral vasodilator activity (compared with papaverine)” value in experiment [1] is listed as “at least equal to that of papaverine”. The IC50 in the experiment on guinea pig ileum (setting [5]) and in the experiment on guinea pig ileum (setting [6]) was below 1e-06 M in each case.
As to `CCCCCCNC(C)C(O)c1ccc(OCC(C)C)cc1` (centres unmarked) [Compound 79], the “peripheral vasodilator activity (compared with papaverine)” value in experiment [1] is “at least equal to that of papaverine”.
Consider `CCCCCCCCNC(C)C(O)c1ccc(C(C)C)cc1` (centres unmarked) [Compound 81, 1-(4-isopropylphenyl)-2-n-octylamino-1-propanol], for which, in experiment [1], the “peripheral vasodilator activity (compared with papaverine)” value is “at least equal to that of papaverine”. Besides, the IC50 with guinea pig ileum (setting [5]) and in the experiment on guinea pig ileum (setting [6]) was below 1e-06 M each time.
Turning to `CCCCCCCCCCCCNC(C)C(O)c1ccc(C(C)C)cc1` (centres unmarked) [Compound 82], the “peripheral vasodilator activity (compared with papaverine)” value in experiment [1] is “at least equal to that of papaverine”.
For the compound `CCCCCCNC(C)C(O)c1ccccc1` (centres unmarked) [Compound 83], the “peripheral vasodilator activity (compared with papaverine)” value in experiment [1] is recorded as “at least equal to that of papaverine”. Further, the IC50 in the experiment on guinea pig ileum (setting [5]) and in the experiment with guinea pig ileum (setting [6]) was below 1e-06 M in each case.
On to `CCCCCCCCNC(C)C(O)c1ccc(Cl)cc1` (centres unmarked) [Compound 85], for which, in experiment [1], the “peripheral vasodilator activity (compared with papaverine)” value was “at least equal to that of papaverine”. Further, the IC50 in the experiment on guinea pig ileum (setting [5]) and with guinea pig ileum (setting [6]) was below 1e-06 M in each case.
As for `CCCCCCCCCCCCNC(C)C(O)c1ccc(OC)cc1` (centres unmarked) [Compound 88], the IC50 in the experiment on guinea pig ileum (setting [5]) and in the experiment with guinea pig ileum (setting [6]) was below 1e-06 M throughout.
`CCCCCCCCNC(C)C(O)c1ccc(OCCCC)cc1` (centres unmarked) [Compound 91, 1-(4-butoxyphenyl)-2-n-octylamino-1-propanol]: the “peripheral vasodilator activity (compared with papaverine)” value in experiment [1] is “at least equal to that of papaverine”. In addition, the IC50 in the experiment with guinea pig ileum (setting [5]) and in the experiment on guinea pig ileum (setting [6]) was below 1e-06 M throughout.
In the case of `CC(C)Oc1ccc(C(O)C(C)NCCCCc2ccccc2)cc1` (centres unmarked) [Compound 94, 1-(4-Isopropoxyphenyl)-2-(4-phenylbutylamino)-1-propanol], in experiment [2], the antihypertensive activity result is “suitable antihypertensive activity”.
Consider `COc1ccc(Cc2nccc3cc(OC)c(OC)cc23)cc1OC` [papaverine, reference compound], for which the IC50 is 3.16e-05 M in the experiment with guinea pig ileum (setting [5]) and 3e-05 M in the experiment with guinea pig ileum (setting [6]).
Regarding `COC(=O)[C@H]1[C@H]2C[C@@H]3c4[nH]c5cc(OC)ccc5c4CCN3C[C@H]2C[C@@H](OC(=O)c2cc(OC)c(OC)c(OC)c2)[C@@H]1OC` [reserpine, reference compound], the “antihypertensive effect (rating)” value in experiment [2] (3 mgr/kg) is “+++ (reduction of 30 to 50 mm Hg)”.
For the compound `CC(N)(Cc1ccc(O)c(O)c1)C(=O)O` (stereo not drawn) [α-methyldopa, reference compound], the “antihypertensive effect (rating)” value in experiment [2] (100 mgr/kg) is reported as “+++ (reduction of 30 to 50 mm Hg)”.
